Results reported in patent US8242086B2, “Methods and compositions for treating disorders caused by a deficiency in a gene product of a CLN gene” (Duke University, priority 2008, dated 2012).

Experiments:
wild-type CLN3p = target: T1, wild-type CLN3p (Homo sapiens, UniProt Q13286); assay: Protein-lipid overlay assay, wild-type CLN3p; type: binding
T1 construct: expressed in transfected cells; host or cells: fibroblasts overexpressing CLN3p (AC1 cells)
T1 sequence (Q13286 1-438): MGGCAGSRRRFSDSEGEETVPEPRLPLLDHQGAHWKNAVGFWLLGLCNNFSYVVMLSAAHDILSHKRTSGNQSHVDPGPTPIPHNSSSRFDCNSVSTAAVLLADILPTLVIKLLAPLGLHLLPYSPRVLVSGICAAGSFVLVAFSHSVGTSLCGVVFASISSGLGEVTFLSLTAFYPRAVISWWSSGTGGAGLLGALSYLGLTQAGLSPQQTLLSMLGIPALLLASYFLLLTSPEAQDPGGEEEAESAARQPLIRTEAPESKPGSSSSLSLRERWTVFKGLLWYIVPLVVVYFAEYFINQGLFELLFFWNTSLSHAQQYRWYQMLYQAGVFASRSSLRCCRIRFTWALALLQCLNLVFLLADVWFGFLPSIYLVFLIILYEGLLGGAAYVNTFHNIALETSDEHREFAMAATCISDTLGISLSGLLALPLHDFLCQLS
Protocol: Protein-lipid overlay assay. Membrane arrays (SPHINGOSTRIPS (Echelon Research Laboratories, Salt Lake City, Utah), or lipids were spotted on nitrocellulose membranes and dried for at least one hour. Membranes were blocked with 3% (wt/vol) Fatty Acid Free or FFA-BSA (Sigma-Aldrich, St. Louis, Mo.) in Tris-Buffered Saline Tween-20 (TBST) [150 mM NaCl/10 mM Tris.HCl (pH 8.0), and 0.1% (vol/vol) Tween-20] for 1 h at RT. Blocked membranes were incubated for 8 h at 4° C. with 2 mg/ml of total cell lysate.
Fibroblasts overexpressing CLN3p (AC1 cells) and JNCL fibroblasts were used for the GalCer-CLN3 binding assay. The membranes were then washed five times for 5 min each with TBST. After washing, membranes were incubated with anti-CLN3, CLN1, CLN2, CLN6 or CLN8-antibodies overnight at 1:1000 dilution, followed by additional washing and incubation with horseradish peroxidase-conjugated anti-rabbit IgG goat antibody for 1 h at RT. After a final washing, enhanced chemiluminescence was used to detect binding of NCL proteins to sphingolipids. Intensity values were computed with an ImageJ software program.
Binding of CLN3 to GalCer and sulfatide. Membranes impregnated with sphingolipids were overlaid with protein cell lysates from CLN3-overexpressing and JNCL cells. Anti-CLN3 antibody was used to evaluate binding. […] The signal for GalCer-wild-type CLN3p binding was weaker because the more polar sulfatide competes with the less polar GalCer for binding to wild-type CLN3p.

[1] = test system: CLN3-deficient (JNCL) cells; assay: Growth of CLN3-deficient (JNCL) cells treated with GalCer, Trypan blue dye exclusion; type: cell-based, human
Protocol: Cell Culture. Lymphoblasts are grown at 37° C. and in 5% CO2 in RPMI 1640 medium (Sigma-Aldrich, St Louis, Mo.)/10% fetal bovine serum and 1% antibiotic/antimycotic. Immortalized lymphoblast cell lines originally obtained from JNCL and other NCL patients and normal donors, were used for all experiments. Fibroblasts from normal and mnd (CLN8-deficient) mice were also used. All JNCL lymphoblasts used are homozygous for the 1.02 kb deletion in the genomic DNA.
Treatment of CLN3-deficient (JNCL) cells with GalCer increases growth rates. 0.1 million CLN3−/− cells were plated per well in 6 well plates. harvested and counted at 24, 48, 72 and 96 hours. Numbers of viable cells were determined with Trypan blue dye exclusion.

Substance: galactosylceramide [GalCer]
- binding of wild-type CLN3p to membrane spots impregnated with the lipid (wild-type CLN3p; lysate of CLN3-overexpressing cells, anti-CLN3 antibody): bind strongly
- binding of CLN3p to GalCer when sulfatide was omitted from the membrane (wild-type CLN3p; sulfatide omitted, dose dependent): stronger binding
- growth of JNCL cells ([1]; GalCer 50 ng/ml, counted at 24, 48, 72 and 96 hours): restored growth
- growth of JNCL cells ([1]; GalCer 100 ng/ml (doubled concentration)): no effect
